Test results from patent EP4722207A1, “OXOISOINDOLINYL-SUBSTITUTED TETRAHYDROPYRIMIDINEDIONE DERIVATIVE AND USE THEREOF” (Gluetacs Therapeutics (Shanghai) Co., Ltd., priority 2023, dated 2024).

Key:
IKZF3 = molecular target: T1, IKZF3 (Homo sapiens, UniProt Q96SW2+Q9UKT9); assay: Western-blot assay, substrate protein degradation in hPBMCs: IKZF3; type: cell-based; settings: 24 hours of compound treatment, 50 nM and 500 nM
T1 construct: effects of the compounds of the present disclosure on the expression of target proteins in cells; endogenous in cells; host or cells: human PBMCs (hPBMCs)
T1 sequence (Q9UKT9 whole entry): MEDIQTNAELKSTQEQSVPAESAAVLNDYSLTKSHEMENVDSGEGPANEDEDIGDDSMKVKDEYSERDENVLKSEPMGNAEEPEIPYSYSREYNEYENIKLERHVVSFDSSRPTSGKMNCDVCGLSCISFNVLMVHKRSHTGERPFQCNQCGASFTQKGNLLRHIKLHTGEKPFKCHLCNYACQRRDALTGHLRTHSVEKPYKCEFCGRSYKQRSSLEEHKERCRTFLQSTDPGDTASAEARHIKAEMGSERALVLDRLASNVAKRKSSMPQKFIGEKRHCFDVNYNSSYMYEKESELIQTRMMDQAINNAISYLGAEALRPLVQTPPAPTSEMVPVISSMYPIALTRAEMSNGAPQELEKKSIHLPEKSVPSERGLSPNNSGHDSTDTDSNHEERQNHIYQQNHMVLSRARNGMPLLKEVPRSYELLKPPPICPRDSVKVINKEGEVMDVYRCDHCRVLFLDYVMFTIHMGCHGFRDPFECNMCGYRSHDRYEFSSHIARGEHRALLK
T1 sequence (Q96SW2 whole entry): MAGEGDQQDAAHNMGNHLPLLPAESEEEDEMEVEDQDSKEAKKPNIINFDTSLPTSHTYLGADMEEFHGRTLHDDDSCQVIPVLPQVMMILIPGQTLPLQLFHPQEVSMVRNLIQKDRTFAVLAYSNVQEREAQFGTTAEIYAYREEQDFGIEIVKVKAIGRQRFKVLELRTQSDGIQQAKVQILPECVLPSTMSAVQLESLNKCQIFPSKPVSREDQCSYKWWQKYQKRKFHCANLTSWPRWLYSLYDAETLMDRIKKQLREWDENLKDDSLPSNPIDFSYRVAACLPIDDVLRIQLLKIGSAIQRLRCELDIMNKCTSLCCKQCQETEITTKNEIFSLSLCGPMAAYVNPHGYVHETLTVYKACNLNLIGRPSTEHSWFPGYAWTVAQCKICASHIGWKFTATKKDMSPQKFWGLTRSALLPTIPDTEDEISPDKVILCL
T1 sequence (Q16531 whole entry partner): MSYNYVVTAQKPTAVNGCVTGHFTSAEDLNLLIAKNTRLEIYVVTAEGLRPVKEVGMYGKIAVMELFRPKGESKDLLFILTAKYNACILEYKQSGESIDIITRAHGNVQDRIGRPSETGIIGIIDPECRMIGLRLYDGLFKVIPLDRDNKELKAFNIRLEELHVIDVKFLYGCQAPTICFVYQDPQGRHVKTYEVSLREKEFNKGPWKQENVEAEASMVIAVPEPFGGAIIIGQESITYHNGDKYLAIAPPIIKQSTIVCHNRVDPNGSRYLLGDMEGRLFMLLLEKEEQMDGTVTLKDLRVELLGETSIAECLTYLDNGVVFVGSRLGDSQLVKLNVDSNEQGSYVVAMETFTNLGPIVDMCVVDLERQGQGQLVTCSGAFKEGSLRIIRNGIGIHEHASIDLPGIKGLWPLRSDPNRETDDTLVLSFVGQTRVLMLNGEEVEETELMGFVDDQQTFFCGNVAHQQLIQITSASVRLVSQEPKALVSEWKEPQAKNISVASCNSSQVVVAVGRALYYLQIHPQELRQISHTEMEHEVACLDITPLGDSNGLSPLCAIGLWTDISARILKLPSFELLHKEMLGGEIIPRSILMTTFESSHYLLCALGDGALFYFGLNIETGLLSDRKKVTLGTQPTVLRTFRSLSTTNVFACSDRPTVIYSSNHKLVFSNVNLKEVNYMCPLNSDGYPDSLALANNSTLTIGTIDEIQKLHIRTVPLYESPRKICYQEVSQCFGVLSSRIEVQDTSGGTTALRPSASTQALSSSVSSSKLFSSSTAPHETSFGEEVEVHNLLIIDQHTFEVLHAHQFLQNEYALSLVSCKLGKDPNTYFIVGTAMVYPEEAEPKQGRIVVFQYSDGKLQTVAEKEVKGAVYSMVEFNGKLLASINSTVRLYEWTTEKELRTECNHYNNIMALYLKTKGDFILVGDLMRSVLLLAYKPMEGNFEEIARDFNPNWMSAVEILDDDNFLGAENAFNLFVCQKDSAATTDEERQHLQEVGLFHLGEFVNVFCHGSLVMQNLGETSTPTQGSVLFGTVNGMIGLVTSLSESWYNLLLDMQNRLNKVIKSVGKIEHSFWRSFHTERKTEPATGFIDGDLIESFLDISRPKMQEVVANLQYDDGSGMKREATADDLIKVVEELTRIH

IKZF2 = molecular target: T2, IKZF2 (Homo sapiens, UniProt Q96SW2+Q9UKS7); assay: Western-blot assay, substrate protein degradation in hPBMCs: IKZF2; type: cell-based; settings: 24 hours of compound treatment, 50 nM and 500 nM
T2 construct: effects of the compounds of the present disclosure on the expression of target proteins in cells; endogenous in cells; host or cells: human PBMCs (hPBMCs)
T2 sequence (Q9UKS7 whole entry): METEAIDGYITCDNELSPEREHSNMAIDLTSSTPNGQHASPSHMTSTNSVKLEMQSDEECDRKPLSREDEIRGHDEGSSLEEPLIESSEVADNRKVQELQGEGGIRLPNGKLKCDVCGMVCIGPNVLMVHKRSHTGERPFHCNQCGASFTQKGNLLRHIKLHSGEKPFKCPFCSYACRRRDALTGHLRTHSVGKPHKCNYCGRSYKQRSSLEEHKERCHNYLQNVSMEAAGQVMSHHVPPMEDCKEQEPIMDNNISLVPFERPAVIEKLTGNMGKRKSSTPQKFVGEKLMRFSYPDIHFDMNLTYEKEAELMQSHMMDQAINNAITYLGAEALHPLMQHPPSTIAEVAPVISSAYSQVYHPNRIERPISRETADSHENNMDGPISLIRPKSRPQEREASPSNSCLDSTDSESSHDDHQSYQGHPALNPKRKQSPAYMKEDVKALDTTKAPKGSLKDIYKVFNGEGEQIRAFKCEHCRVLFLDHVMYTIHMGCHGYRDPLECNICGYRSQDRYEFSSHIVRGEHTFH
T2 sequence (Q96SW2 whole entry): as the sequence (Q96SW2 whole entry) above
T2 sequence (Q16531 whole entry partner): as the sequence (Q16531 whole entry partner) above

CK1α = molecular target: T3, CK1α (Homo sapiens, UniProt P48729+Q96SW2); assay: Western-blot assay, substrate protein degradation in hPBMCs: CK1α; type: cell-based; settings: 24 hours of compound treatment, 50 nM and 500 nM
T3 construct: effects of the compounds of the present disclosure on the expression of target proteins in cells; endogenous in cells; host or cells: human PBMCs (hPBMCs)
T3 sequence (P48729 whole entry): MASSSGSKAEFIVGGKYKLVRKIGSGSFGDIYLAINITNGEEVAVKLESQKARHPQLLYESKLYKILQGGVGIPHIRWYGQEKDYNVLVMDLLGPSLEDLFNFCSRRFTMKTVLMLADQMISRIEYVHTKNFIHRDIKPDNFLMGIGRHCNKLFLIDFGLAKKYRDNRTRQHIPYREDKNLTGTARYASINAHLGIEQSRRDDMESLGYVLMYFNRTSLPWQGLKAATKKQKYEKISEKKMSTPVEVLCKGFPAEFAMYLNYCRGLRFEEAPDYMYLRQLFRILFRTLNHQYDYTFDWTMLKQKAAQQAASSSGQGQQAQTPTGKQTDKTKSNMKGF
T3 sequence (Q96SW2 whole entry): as the sequence (Q96SW2 whole entry) above
T3 sequence (Q16531 whole entry partner): as the sequence (Q16531 whole entry partner) above

MDA-MB-231 = assay: Cell viability assay (CellTiter-Meiluncell Luminescent), tumor cell proliferation, MDA-MB-231; settings: Homo sapiens, MDA-MB-231, 96 h; for inhibition at 0.01 µM: read-out: Inhibition Rate at 10 nM (%); for inhibition at 0.5 µM: read-out: Inhibition Rate at 500 nM (%)
Experimental: (§1) The tumor cells used herein were cultured in a cell culture medium listed in table 2 at 37°C in an incubator with 5% CO2. Prior to experimentation, all cell lines used were correctly identified by STR profiling, and tested negative for mycoplasma contamination using a mycoplasma detection kit through routine screenings.
(§2) On the following day, the test compounds of the present disclosure were subjected to serial dilution. […] Subsequently, 0.5 µL of the test compound dilution was transferred into the 96-well plate containing the cells, with each well containing 100 µL of cell culture medium. […] Into the 96-well plate, the diluted test compounds and corresponding detection reagents were added, resulting in final test compound concentrations of 500 nM and 10 nM, respectively. The experimental procedure is described below using the diluted 2 µM test compound as an example.
(§3) After the cells were treated with the compounds of the present disclosure for a specified period, the cell viability assay reagent was added to the culture medium according to the kit's instructions to determine cell viability. […] All controls were treated using the same procedure as the compounds of the present disclosure. The growth inhibition curves for the compounds of the present disclosure were plotted using Prism GraphPad software, and the IC50 values were calculated therefrom.

GSPT1 = molecular target: T4, GSPT1 (Homo sapiens, UniProt P15170+Q96SW2); assay: Western-blot assay, substrate protein degradation in hPBMCs: GSPT1; type: cell-based; settings: 24 hours of compound treatment, 50 nM and 500 nM
T4 construct: effects of the compounds of the present disclosure on the expression of target proteins in cells; endogenous in cells; host or cells: human PBMCs (hPBMCs)
T4 sequence (P15170 whole entry): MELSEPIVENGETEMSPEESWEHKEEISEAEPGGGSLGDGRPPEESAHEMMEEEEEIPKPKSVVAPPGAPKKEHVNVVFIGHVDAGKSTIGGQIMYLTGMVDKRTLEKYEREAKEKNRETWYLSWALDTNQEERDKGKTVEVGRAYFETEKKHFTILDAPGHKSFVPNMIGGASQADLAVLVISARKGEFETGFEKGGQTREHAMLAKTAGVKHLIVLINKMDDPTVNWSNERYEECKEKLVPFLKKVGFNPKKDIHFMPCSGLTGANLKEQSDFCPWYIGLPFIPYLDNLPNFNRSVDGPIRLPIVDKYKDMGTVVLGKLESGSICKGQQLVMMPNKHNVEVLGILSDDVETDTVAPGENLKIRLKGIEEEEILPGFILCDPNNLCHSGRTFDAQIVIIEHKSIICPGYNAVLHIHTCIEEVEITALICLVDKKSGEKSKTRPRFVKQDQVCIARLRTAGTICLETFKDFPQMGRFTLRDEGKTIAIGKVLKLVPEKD
T4 sequence (Q96SW2 whole entry): as the sequence (Q96SW2 whole entry) above
T4 sequence (Q16531 whole entry partner): as the sequence (Q16531 whole entry partner) above

IKZF1 = molecular target: T5, IKZF1 (Homo sapiens, UniProt Q13422+Q96SW2); assay: Western-blot assay, substrate protein degradation in hPBMCs: IKZF1; type: cell-based; settings: 24 hours of compound treatment, 50 nM and 500 nM
T5 construct: effects of the compounds of the present disclosure on the expression of target proteins in cells; endogenous in cells; host or cells: human PBMCs (hPBMCs)

WEE1 = molecular target: T6, WEE1 (Homo sapiens, UniProt P30291+Q96SW2); assay: Western-blot assay, substrate protein degradation in hPBMCs: WEE1; type: cell-based; settings: 24 hours of compound treatment, 50 nM and 500 nM
T6 construct: effects of the compounds of the present disclosure on the expression of target proteins in cells; endogenous in cells; host or cells: human PBMCs (hPBMCs)
T6 sequence (P30291 whole entry): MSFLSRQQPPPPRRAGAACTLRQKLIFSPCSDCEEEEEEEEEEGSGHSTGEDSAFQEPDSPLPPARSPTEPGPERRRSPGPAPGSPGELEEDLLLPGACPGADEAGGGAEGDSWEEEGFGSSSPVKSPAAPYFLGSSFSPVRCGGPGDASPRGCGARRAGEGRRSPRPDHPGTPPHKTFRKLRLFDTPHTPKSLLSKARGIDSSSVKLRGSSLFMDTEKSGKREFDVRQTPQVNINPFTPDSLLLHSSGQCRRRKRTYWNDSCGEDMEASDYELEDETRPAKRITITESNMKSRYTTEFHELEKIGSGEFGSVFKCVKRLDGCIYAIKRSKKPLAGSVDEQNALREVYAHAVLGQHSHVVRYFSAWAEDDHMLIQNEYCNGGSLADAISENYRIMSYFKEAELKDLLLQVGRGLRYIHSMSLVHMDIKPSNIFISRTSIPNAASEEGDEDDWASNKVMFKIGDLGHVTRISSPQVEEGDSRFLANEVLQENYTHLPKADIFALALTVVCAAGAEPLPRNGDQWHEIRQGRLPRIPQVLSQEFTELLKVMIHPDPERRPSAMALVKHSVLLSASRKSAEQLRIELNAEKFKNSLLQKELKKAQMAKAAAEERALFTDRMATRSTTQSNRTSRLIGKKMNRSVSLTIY
T6 sequence (Q96SW2 whole entry): as the sequence (Q96SW2 whole entry) above
T6 sequence (Q16531 whole entry partner): as the sequence (Q16531 whole entry partner) above

H2228 = assay: Cell viability assay (CellTiter-Meiluncell Luminescent), tumor cell proliferation, H2228; settings: Homo sapiens, NCI-H2228, 96 h; for inhibition at 0.01 µM: read-out: Inhibition Rate at 10 nM (%); for inhibition at 0.5 µM: read-out: Inhibition Rate at 500 nM (%)
Experimental: as §1, §2, §3

H292 = assay: Cell viability assay (CellTiter-Meiluncell Luminescent), tumor cell proliferation, H292; settings: Homo sapiens, NCI-H292, 96 h; for inhibition at 0.01 µM: read-out: Inhibition Rate at 10 nM (%); for inhibition at 0.5 µM: read-out: Inhibition Rate at 500 nM (%)

With `Cc1cc2c(N3CCN(Cc4ccc5c(c4)CN(N4CCC(=O)NC4=O)C5=O)CC3)ncnc2s1` [GT-08059, 1-(5-((4-(6-methylthieno[2,3-d]pyrimidin-4-yl)piperazin-1-yl)methyl)-1-oxoisoindolin-2-yl)dihydropyrimidine-2,4(1H,3H)-dione] the “substrate protein remaining % IKZF3” value (IKZF3) was “A (0% ≤ substrate protein remaining % ≤ 80%)”, the “substrate protein remaining % IKZF2” value (IKZF2) was “B (80%< substrate protein remaining %≤ 100%)” and the “substrate protein remaining % CK1α” value (CK1α) was “B (80%< substrate protein remaining %≤ 100%)”. The inhibition at 0.01 µM (MDA-MB-231) was 25 to 40%, the inhibition at 0.5 µM (MDA-MB-231) was 25 to 40% and the “substrate protein remaining % GSPT1” value (GSPT1) was “B (80%< substrate protein remaining %≤ 100%)”. For the same molecule, the “substrate protein remaining % IKZF1” value (IKZF1) was “B (80%< substrate protein remaining %≤ 100%)”, the “substrate protein remaining % WEE1” value (WEE1) was “B (80%< substrate protein remaining %≤ 100%)” and the inhibition at 0.01 µM (H2228) was 30 to 40%. The inhibition at 0.5 µM (H2228) was 15 to 20%, the inhibition at 0.01 µM (H292) was 20 to 40% and the inhibition at 0.5 µM (H292) was 5 to 10%.
For `CC(C)c1cc2c(N3CCN(Cc4ccc5c(c4)CN(N4CCC(=O)NC4=O)C5=O)CC3)ncnc2s1` [GT-08060, 1-(5-((4-(6-isopropylthieno[2,3-d]pyrimidin-4-yl)piperazin-1-yl)methyl)-1-oxoisoindolin-2-yl)dihydropyrimidine-2,4(1H,3H)-dione], the “substrate protein remaining % IKZF3” value (IKZF3) was “A (0% ≤ substrate protein remaining % ≤ 80%)”, the “substrate protein remaining % IKZF2” value (IKZF2) was “A (0% ≤ substrate protein remaining % ≤ 80%)” and the “substrate protein remaining % CK1α” value (CK1α) was “B (80%< substrate protein remaining %≤ 100%)”. The inhibition at 0.01 µM (MDA-MB-231) was 25 to 40%, the inhibition at 0.5 µM (MDA-MB-231) was 25 to 40% and the “substrate protein remaining % GSPT1” value (GSPT1) was “B (80%< substrate protein remaining %≤ 100%)”. For the same molecule, the “substrate protein remaining % IKZF1” value (IKZF1) was “B (80%< substrate protein remaining %≤ 100%)”, the “substrate protein remaining % WEE1” value (WEE1) was “B (80%< substrate protein remaining %≤ 100%)” and the inhibition at 0.01 µM (H2228) was 20 to 25%. It also gave an inhibition at 0.5 µM (H2228) of 30 to 40%, an inhibition at 0.01 µM (H292) of 20 to 40% and an inhibition at 0.5 µM (H292) of 20 to 40%.
`Cc1cc2c(C3CCN(Cc4ccc5c(c4)CN(N4CCC(=O)NC4=O)C5=O)CC3)ncnc2s1` [GT-08083, 1-(5-((4-(6-methylthieno[2,3-d]pyrimidin-4-yl)piperidin-1-yl)methyl)-1-oxoisoindolin-2-yl)dihydropyrimidine-2,4(1H,3H)-dione] was tested, and the “substrate protein remaining % IKZF3” value (IKZF3) was “B (80%< substrate protein remaining %≤ 100%)”, the “substrate protein remaining % IKZF2” value (IKZF2) was “B (80%< substrate protein remaining %≤ 100%)” and the “substrate protein remaining % CK1α” value (CK1α) was “A (0% ≤ substrate protein remaining % ≤ 80%)”. For the same molecule, the inhibition at 0.01 µM (MDA-MB-231) was 25 to 40%, the inhibition at 0.5 µM (MDA-MB-231) was 25 to 40% and the “substrate protein remaining % GSPT1” value (GSPT1) was “A (0% ≤ substrate protein remaining % ≤ 80%)”. For the same molecule, the “substrate protein remaining % IKZF1” value (IKZF1) was “B (80%< substrate protein remaining %≤ 100%)”, the “substrate protein remaining % WEE1” value (WEE1) was “B (80%< substrate protein remaining %≤ 100%)” and the inhibition at 0.01 µM (H2228) was 25 to 30%. It also gave an inhibition at 0.5 µM (H2228) of 30 to 40%, an inhibition at 0.01 µM (H292) of 20 to 40% and an inhibition at 0.5 µM (H292) of 20 to 40%.
For `Cc1nc(C2CCN(Cc3ccc4c(c3)CN(N3CCC(=O)NC3=O)C4=O)CC2)c2c3c(sc2n1)CCCC3` [GT-08089, 1-(5-((4-(2-methyl-5,6,7,8-tetrahydrobenzo[4,5]thieno[2,3-d]pyrimidin-4-yl)piperidin-1-yl)methyl)-1-oxoisoindolin-2-yl)dihydropyrimidine-2,4(1H,3H)-dione], the “substrate protein remaining % IKZF3” value (IKZF3) was “B (80%< substrate protein remaining %≤ 100%)”, the “substrate protein remaining % IKZF2” value (IKZF2) was “B (80%< substrate protein remaining %≤ 100%)” and the “substrate protein remaining % CK1α” value (CK1α) was “A (0% ≤ substrate protein remaining % ≤ 80%)”. For the same molecule, the inhibition at 0.01 µM (MDA-MB-231) was 18 to 25%, the inhibition at 0.5 µM (MDA-MB-231) was 25 to 40% and the “substrate protein remaining % GSPT1” value (GSPT1) was “A (0% ≤ substrate protein remaining % ≤ 80%)”. For the same molecule, the “substrate protein remaining % IKZF1” value (IKZF1) was “B (80%< substrate protein remaining %≤ 100%)”, the “substrate protein remaining % WEE1” value (WEE1) was “A (0% ≤ substrate protein remaining % ≤ 80%)” and the inhibition at 0.01 µM (H2228) was 20 to 25%. For the same molecule, the inhibition at 0.5 µM (H2228) was 20 to 25%, the inhibition at 0.01 µM (H292) was 20 to 40% and the inhibition at 0.5 µM (H292) was 20 to 40%.
